Like-named read-outs stand apart in the source and are kept apart here. Each block holds one compound with its values, some of them ahead of it.
Tests used:
Test in all cases: biochemical
Set-up in all cases: DiscoveRx KINOMEscan active site-directed competition binding; percent of control kinase bound to immobilised ligand
CDK7 = CDK7 (Homo sapiens, UniProt P50613)
CSNK1G1 = CSNK1G1 (Homo sapiens, UniProt Q9HCP0)
EGFR(L861Q) = EGFR(L861Q) (Homo sapiens, UniProt P00533, L861Q)
FLT3 = biological target: T1, FLT3 (Homo sapiens, UniProt P36888)
T1 sequence (P36888 1-993): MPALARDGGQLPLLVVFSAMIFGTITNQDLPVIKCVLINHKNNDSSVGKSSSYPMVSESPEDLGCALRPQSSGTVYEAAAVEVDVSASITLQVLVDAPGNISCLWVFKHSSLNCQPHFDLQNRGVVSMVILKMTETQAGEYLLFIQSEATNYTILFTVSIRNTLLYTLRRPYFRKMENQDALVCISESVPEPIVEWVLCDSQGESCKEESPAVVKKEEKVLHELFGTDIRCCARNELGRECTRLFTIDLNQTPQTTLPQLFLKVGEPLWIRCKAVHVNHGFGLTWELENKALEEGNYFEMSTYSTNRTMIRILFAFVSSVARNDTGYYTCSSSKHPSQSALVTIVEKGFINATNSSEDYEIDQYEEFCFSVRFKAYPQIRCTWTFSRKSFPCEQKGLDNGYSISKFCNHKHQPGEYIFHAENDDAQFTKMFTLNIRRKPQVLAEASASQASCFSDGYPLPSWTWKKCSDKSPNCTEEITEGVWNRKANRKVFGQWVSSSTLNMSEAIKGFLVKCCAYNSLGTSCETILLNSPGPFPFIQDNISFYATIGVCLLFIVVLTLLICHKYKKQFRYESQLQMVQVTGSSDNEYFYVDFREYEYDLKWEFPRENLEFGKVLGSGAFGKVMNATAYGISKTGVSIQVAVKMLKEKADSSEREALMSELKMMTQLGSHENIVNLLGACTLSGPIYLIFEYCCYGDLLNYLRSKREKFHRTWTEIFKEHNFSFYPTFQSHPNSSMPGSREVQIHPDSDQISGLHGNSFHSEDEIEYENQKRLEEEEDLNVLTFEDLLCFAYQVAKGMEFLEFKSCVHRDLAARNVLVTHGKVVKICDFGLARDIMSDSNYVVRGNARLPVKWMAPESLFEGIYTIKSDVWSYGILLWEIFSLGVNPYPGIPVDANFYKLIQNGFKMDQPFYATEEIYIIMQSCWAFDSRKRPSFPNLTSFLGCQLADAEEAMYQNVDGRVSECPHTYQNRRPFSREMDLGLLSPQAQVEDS

GSK3B = GSK3B (Homo sapiens, UniProt P49841)
MAPKAPK5 = biological target: T2, MAPKAPK5 (Homo sapiens, UniProt Q8IW41)
T2 sequence (Q8IW41 1-473): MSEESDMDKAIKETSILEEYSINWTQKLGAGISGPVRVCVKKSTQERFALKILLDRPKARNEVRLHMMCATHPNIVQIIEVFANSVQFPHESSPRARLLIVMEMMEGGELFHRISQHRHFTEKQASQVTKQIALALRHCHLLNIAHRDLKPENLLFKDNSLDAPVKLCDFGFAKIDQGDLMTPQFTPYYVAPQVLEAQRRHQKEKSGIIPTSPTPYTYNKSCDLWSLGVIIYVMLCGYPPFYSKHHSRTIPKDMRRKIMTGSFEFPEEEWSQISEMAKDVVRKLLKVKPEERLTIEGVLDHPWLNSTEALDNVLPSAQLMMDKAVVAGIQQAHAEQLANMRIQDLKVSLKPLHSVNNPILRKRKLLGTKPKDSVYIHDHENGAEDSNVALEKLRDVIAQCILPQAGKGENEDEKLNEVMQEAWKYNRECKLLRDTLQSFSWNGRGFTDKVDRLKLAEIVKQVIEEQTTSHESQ

PAK3 = PAK3 (Homo sapiens, UniProt O75914)
p38-alpha = biological target: T3, p38-alpha (Homo sapiens, UniProt Q16539)
T3 construct: gene MAPK14

[1] = read-out: Niraparib (MK-4827) / %Ctrl @ 10000nM
[2] = read-out: Olaparib / %Ctrl @ 10000nM
[3] = read-out: Rucaparib / %Ctrl @ 10000nM, binding competition, % of control
[4] = read-out: Talazoparib (BMN 673) / %Ctrl @ 10000nM

EGFR(L861Q), sequence (P00533 whole entry L861Q): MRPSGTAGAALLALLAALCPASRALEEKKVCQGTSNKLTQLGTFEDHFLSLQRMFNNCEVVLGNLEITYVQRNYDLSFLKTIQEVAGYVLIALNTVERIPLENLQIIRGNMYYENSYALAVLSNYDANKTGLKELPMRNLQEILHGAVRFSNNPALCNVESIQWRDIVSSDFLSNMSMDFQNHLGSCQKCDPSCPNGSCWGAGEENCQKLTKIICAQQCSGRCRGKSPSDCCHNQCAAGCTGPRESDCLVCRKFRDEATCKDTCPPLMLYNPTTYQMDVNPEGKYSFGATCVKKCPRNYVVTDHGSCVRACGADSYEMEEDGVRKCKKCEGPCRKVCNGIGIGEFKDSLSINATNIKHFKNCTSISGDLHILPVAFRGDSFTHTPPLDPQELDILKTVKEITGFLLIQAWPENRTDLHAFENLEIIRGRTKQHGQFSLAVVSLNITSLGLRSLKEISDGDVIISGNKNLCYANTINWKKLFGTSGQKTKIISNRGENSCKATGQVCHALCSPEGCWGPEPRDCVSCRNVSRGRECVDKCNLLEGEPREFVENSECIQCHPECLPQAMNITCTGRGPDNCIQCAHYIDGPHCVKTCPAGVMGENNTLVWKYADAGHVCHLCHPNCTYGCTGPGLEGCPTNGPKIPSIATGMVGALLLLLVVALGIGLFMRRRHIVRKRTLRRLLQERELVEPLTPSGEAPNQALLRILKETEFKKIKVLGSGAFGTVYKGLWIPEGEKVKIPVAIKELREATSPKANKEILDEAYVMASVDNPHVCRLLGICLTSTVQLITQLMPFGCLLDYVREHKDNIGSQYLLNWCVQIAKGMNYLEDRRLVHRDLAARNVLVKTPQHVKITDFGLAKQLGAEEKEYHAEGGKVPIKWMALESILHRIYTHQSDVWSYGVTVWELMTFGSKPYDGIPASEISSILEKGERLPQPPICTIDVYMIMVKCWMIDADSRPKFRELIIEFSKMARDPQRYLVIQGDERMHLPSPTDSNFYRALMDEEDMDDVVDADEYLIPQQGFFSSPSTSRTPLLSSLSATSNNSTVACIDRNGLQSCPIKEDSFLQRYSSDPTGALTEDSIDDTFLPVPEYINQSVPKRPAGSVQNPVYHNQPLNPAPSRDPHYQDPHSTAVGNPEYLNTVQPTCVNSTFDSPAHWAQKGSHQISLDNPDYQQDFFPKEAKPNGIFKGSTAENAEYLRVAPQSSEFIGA
GSK3B, sequence (P49841 whole entry): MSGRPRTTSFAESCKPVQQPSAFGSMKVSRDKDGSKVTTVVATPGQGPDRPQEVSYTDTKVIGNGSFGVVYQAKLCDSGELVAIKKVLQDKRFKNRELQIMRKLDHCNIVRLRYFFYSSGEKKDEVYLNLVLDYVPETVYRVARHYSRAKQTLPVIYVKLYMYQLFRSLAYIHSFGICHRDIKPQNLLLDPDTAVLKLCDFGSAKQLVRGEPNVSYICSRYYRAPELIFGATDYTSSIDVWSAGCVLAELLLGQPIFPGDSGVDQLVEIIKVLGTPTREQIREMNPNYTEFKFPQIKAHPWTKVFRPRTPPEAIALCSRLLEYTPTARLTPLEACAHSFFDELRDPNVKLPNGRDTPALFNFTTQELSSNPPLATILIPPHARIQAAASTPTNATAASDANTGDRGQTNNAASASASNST
CDK7, sequence (P50613 whole entry): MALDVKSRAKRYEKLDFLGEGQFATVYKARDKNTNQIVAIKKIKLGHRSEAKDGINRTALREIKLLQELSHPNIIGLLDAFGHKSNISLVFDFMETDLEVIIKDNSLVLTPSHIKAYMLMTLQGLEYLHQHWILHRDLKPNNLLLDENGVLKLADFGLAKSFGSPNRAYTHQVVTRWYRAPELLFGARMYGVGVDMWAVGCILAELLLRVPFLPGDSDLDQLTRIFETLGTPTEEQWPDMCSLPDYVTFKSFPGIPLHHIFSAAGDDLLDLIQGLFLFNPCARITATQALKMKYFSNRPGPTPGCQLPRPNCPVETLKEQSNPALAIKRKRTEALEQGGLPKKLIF
CSNK1G1, sequence (Q9HCP0 whole entry): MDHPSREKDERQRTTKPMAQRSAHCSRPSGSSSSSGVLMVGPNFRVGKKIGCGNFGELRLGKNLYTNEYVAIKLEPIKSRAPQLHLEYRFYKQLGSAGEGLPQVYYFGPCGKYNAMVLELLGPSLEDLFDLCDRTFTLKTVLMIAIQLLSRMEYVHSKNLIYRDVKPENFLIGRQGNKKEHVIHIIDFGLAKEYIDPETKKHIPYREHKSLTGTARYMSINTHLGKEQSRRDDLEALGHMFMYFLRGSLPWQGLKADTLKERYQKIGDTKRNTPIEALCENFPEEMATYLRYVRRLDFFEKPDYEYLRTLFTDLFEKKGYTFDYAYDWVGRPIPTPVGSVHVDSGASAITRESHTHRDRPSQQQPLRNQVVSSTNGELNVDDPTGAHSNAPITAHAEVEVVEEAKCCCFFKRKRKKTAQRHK
T3 sequence (Q16539 whole entry): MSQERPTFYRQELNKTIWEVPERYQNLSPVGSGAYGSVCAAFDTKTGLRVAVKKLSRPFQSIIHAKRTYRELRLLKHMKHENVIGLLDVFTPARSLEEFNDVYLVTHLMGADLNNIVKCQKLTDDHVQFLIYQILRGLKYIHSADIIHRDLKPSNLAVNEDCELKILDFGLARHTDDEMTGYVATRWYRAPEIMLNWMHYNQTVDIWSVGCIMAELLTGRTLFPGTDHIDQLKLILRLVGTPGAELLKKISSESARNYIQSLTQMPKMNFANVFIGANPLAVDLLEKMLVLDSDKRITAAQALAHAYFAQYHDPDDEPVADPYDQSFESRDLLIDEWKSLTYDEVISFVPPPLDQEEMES
PAK3, sequence (O75914 whole entry): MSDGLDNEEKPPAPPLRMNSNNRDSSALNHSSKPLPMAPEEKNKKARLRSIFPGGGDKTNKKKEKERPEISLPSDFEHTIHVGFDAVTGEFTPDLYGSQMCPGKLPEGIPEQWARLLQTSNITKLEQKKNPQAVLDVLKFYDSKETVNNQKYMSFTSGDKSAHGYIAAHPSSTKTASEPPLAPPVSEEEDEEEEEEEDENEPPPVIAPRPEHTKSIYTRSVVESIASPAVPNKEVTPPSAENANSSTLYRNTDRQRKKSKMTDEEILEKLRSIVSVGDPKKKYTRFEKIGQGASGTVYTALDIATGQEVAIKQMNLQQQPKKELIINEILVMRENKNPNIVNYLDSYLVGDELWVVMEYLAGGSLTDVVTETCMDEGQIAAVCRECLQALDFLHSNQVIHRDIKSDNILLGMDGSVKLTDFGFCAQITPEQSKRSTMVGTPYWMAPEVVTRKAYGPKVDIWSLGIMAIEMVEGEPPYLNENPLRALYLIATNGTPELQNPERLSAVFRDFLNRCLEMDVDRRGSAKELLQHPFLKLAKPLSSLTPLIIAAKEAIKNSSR

SMILES: NC(=O)c1cccc2cn(-c3ccc([C@@H]4CCCNC4)cc3)nc12 [Niraparib]
percent of control binding at 10 µM (CDK7; [1]): 73% | percent of control binding at 10 µM (CSNK1G1; [1]): 98% | percent of control binding at 10 µM (EGFR(L861Q); [1]): 88% | percent of control binding at 10 µM (FLT3; [1]): 70% | percent of control binding at 10 µM (GSK3B; [1]): 88% | percent of control binding at 10 µM (MAPKAPK5; [1]): 86% | percent of control binding at 10 µM (PAK3; [1]): 67% | percent of control binding at 10 µM (p38-alpha; [1]): 95%

percent of control binding at 10 µM (CDK7; [2]): 89% | percent of control binding at 10 µM (CSNK1G1; [2]): 97% | percent of control binding at 10 µM (EGFR(L861Q); [2]): 91% | percent of control binding at 10 µM (FLT3; [2]): 100% | percent of control binding at 10 µM (GSK3B; [2]): 98% | percent of control binding at 10 µM (MAPKAPK5; [2]): 87% | percent of control binding at 10 µM (PAK3; [2]): 96% | percent of control binding at 10 µM (p38-alpha; [2]): 100%
SMILES: O=C(c1cc(Cc2n[nH]c(=O)c3ccccc23)ccc1F)N1CCN(C(=O)C2CC2)CC1 [Olaparib]

percent of control binding at 10 µM (CDK7; [3]): 71% | percent of control binding at 10 µM (CSNK1G1; [3]): 93% | percent of control binding at 10 µM (EGFR(L861Q); [3]): 70% | Rucaparib / %Ctrl @ 10000nM (FLT3; binding competition, % of control): 98% | percent of control binding at 10 µM (GSK3B; [3]): 89% | percent of control binding at 10 µM (MAPKAPK5; [3]): 88% | percent of control binding at 10 µM (PAK3; [3]): 95% | percent of control binding at 10 µM (p38-alpha; [3]): 90%
SMILES: CNCc1ccc(-c2[nH]c3cc(F)cc4c3c2CCNC4=O)cc1 [Rucaparib]

percent of control binding at 10 µM (CDK7; [4]): 100% | percent of control binding at 10 µM (CSNK1G1; [4]): 99% | percent of control binding at 10 µM (EGFR(L861Q); [4]): 82% | percent of control binding at 10 µM (FLT3; [4]): 94% | percent of control binding at 10 µM (GSK3B; [4]): 100% | percent of control binding at 10 µM (MAPKAPK5; [4]): 93% | percent of control binding at 10 µM (PAK3; [4]): 100% | percent of control binding at 10 µM (p38-alpha; [4]): 83%
SMILES: Cn1ncnc1[C@H]1c2n[nH]c(=O)c3cc(F)cc(c23)N[C@@H]1c1ccc(F)cc1 [Talazoparib]

— article PMC7026418, “The kinase polypharmacology landscape of clinical PARP inhibitors” (Scientific Reports, 2020)
